Measurements from patent US9567319B2, “Compound having higher inhibitory activity on protein kinase G and preparation method thereof” (Jenkem Technology Co., Ltd., (Tianjin), priority 2014, dated 2017).

Test: Test of water solubility of the compounds
Settings: for Volume of added water: about 0.1 g sample, water added until dissolved; for solubility: water; for water solubility, times higher than that of compound 46: relative to compound 46 (parent compound)
Method: At room temperature, about 0.1 g of each sample to be tested (solid materials should be ground as powder) was added to a 10 mL cylinder with a ground glass stopper. Water was gradually added. After each addition of 0.5 mL water, the resulting solution was stirred for 10 min for mixing, and was then visually examined for the presence of any undissolved sample. If there still exists undissolved sample or undissolved portions of the sample after 10 mL water was added, the test would be continued in a 100 mL cylinder.

Compound | Volume of added water (room temperature) [mL] | solubility (room temperature) [µg/mL] | water solubility, times higher than that of compound 46 | solubility (thermodynamic from solid) [µg/mL]
COCCOCCOCCOCCOCCOCCOCCOc1ccc(OC)c(F)c1C(=O)c1ccc(C(=O)N[C@@H]2CNC[C@H]2NC(=O)c2ccc3cn[nH]c3c2)cc1.Cl [JK-M07M, (3R,4R)-3-{4-[2-fluoro-3-methoxy-6-(2,5,8,11,14,17,20-heptaoxadocosan-22-oxy)]benzoyl}benzamido-4-(1H-indazole-6-carboxamido)pyrrolidine hydrochloride] | 7.5 | 13300 |  | 
CCCOCCOCCOc1ccc(F)c(F)c1C(=O)c1ccc(C(=O)N[C@@H]2CNC[C@H]2NC(=O)c2ccc3cn[nH]c3c2)cc1.Cl [JK-02P, (3R,4R)-3-{4-[2,3-difluoro-6-(3,6-dioxanonan-1-oxy)]benzoyl}benzamido-4-(1H-indazole-6-carboxamido)pyrrolidine hydrochloride] | 22.5 |  | about 3 times | 4400
COc1ccc(OCCOCCO)c(C(=O)c2ccc(C(=O)N[C@@H]3CNC[C@H]3NC(=O)c3ccc4cn[nH]c4c3)cc2)c1F.Cl [JK-M02H, (3R,4R)-3-{4-[2-fluoro-3-methoxy-6-(5-hydroxy-3-oxapentan-1-oxy)]benzoyl}benzamido-4-(1H-indazole-6-carboxamido)pyrrolidine hydrochloride] | 12.5 |  |  | 8000
COCCOCCOCCOc1ccc(F)c(F)c1C(=O)c1ccc(C(=O)N[C@@H]2CNC[C@H]2NC(=O)c2ccc3cn[nH]c3c2)cc1.Cl [JK-03M, (3R,4R)-3-{4-[2,3-difluoro-6-(2,5,8-trioxadecan-10-oxy)]benzoyl}benzamido-4-(1H-indazole-6-carboxamido)pyrrolidine hydrochloride] | 16.5 | 6100 | about 4 times | 
CCCOCCOCCOc1ccc(OC)c(F)c1C(=O)c1ccc(C(=O)N[C@@H]2CNC[C@H]2NC(=O)c2ccc3cn[nH]c3c2)cc1.Cl [JK-M02P, (3R,4R)-3-{4-[2-fluoro-3-methoxy-6-(4,7-dioxanonan-9-oxy)]benzoyl}benzamido-4-(1H-indazole-6-carboxamido)pyrrolidine hydrochloride] | 22.0 |  |  | 4500
